Patent US12428395B2, “Heterocyclic compounds as kinase inhibitor and uses thereof” (SPEROGENIX THERAPEUTICS LIMITED, priority 2019, dated 2025)

Assays:
THP1 = assay: Cell viability assay (resazurin), THP1; format: cell-based; conditions: Homo sapiens, THP-1; THP1 peripheral blood cells
Description: (§1) Protocol for Cell Viability Assay in Different Cell Lines for CHK-1 Inhibitors:
(§2) Cells were allowed to grow at 37° C. for 24 hr (adherent cells) in 5% CO2 (culture conditions) in a Nuaire incubator (humidified). Following 24 hr (adherent cells), serially diluted compounds (100 μl) were added to the culture plate (immediately after plating in case of suspension cells) and the cultures were further incubated in culture conditions for 72-144 hr depending on the cell type. Experiment was terminated at the completion of respective incubation with drug by replacing the medium with 100 μl of 1 mM of resazurin (R7017; Sigma) prepared in culture medium and the plates were further incubated in culture conditions for 4 hr. In case of 144 hr incubation with the drug, the drug was replenished once with fresh medium after 72 hr. Fluorescence was then measured using a multimodal plate reader (Biotek Synergy Neo) at an excitation wavelength of 535 nm and emission wavelength of 590 nm to obtain relative fluorescence units. Data analysis was done by subtracting the background fluorescence (only medium blank) value from each reading and then normalizing with the vehicle control (DMSO treated cells) to obtain percent survival/proliferation. Percent survival at different doses was used to calculate IC50 by fitting the curve to the “four-parameter variable slope logistic model” using Prism Graph Pad.

HT-29 = assay: Cell viability assay (resazurin), HT-29; format: cell-based; conditions: Homo sapiens; HT-29 colon cancer cells
Description: as §1, §2

A549 = assay: Cell viability assay (resazurin), A549; format: cell-based; conditions: Homo sapiens; A549 lung epithelial carcinoma cells
Description: as §1, §2

CHK-1 kinase = CHK-1 kinase (Homo sapiens (Human), UniProt O14757); assay: CHK-1 Kinase Assay (Z-LYTE based TR-FRET); format: biochemical; conditions: for inhibition at 0.1 µM: 0.1 μM compound, read-out: % Inhibition of CHK-1 enzyme activity @ 0.1 μM; for inhibition at 1 µM: 1 μM compound, read-out: % Inhibition of CHK-1 enzyme activity @ 1 μM; for inhibition at 5 µM: 5 μM compound, read-out: % Inhibition of CHK-1 enzyme activity @ 5 μM
CHK-1 kinase, sequence (O14757 whole entry): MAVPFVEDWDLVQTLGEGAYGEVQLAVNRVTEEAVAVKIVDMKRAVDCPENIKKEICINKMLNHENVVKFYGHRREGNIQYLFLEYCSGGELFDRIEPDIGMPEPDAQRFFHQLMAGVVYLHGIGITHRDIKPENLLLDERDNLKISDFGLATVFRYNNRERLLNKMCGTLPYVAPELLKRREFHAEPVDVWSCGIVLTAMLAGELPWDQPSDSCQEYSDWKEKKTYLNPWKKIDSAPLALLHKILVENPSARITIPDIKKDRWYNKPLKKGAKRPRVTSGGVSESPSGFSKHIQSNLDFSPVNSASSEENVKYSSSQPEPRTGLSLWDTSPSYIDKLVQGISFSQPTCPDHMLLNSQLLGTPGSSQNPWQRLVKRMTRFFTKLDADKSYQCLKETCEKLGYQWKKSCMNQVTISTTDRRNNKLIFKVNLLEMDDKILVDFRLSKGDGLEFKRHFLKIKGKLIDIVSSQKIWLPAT
Description: IC50 values of compounds for inhibition of CHK-1 kinase or percent inhibition at defined concentrations were determined by Z-LYTE™ based TR-FRET assay. Kinase reactions were performed in a 10 μL volume in low-volume 384-well plates. The concentration of substrate (Ser Thr 19) was maintained at 2 μM in the assay, and the kinase reaction buffer consisted of 50 mM HEPES pH 7.5, 0.01% BRIJ-35, 10 mM MgCl2, 1 mM EGTA, 2 mM DTT. Serially diluted compounds (3-fold) in DMSO (0.5% in final reaction) were incubated with cocktail of CHK-1 kinase (5 ng/ml; Cat #P3040, ThermoFisher), substrate Ser Thr 19, (2 μM; Cat #PV4529, ThermoFisher), ATP (53 μM; Cat #PV3227, ThermoFisher) and buffer. Kinase reactions were allowed to proceed for 1 hour at room temperature after which 5 μL of a 1:256 dilution of Development Reagent A was added. The plate was allowed to incubate at room temperature for 60 minutes before being read on a BMG Pherastar plate reader using the Z-LYTE™ filter block for Z-LYTE™ TR-FRET. The resulting TR-FRET emission ratio was used to calculate percent inhibition by normalizing with the control using the following formula: — [% Inhibition=1−{(% Phosphorylationsample/% Phosphorylationcontrol (0% Inhibition)}·100] For calculation of IC50, the percent inhibition obtained was plotted against the concentration of inhibitor, and the data was fit to a sigmoidal dose-response curve with a variable slope. The IC50 was calculated from the curve.

HCT116 = assay: Cell viability assay (resazurin), HCT116; format: cell-based; conditions: Homo sapiens, HCT-116; HCT116 colorectal carcinoma cells
Description: as §1, §2

MDA_MB-231 = assay: Cell viability assay (resazurin), MDA_MB-231; format: cell-based; conditions: Homo sapiens, MDA-MB-231; MDA_MB-231 TNBC cells
Description: as §1, §2

MiaPaCa-2 = assay: Cell viability assay (resazurin), MiaPaCa-2; format: cell-based; conditions: Homo sapiens, MIA PaCa-2; MiaPaCa-2 pancreatic cancer cells
Description: as §1, §2

AsPC-1 = assay: Cell viability assay (resazurin), AsPC-1; format: cell-based; conditions: Homo sapiens, ASPC1; AsPC-1 pancreatic cancer cells
Description: as §1, §2

MV-4-11 = assay: Cell viability assay (resazurin), MV-4-11; format: cell-based; conditions: Homo sapiens, MV4-11; MV-4-11 peripheral blood cells
Description: as §1, §2

CHK-2 kinase = CHK-2 kinase (Homo sapiens (Human), UniProt O96017); assay: CHK-2 Kinase Assay (Z-LYTE based TR-FRET); format: biochemical; conditions: for inhibition at 0.1 µM: 0.1 μM compound, read-out: % Inhibition of CHK-2 enzyme activity @ 0.1 μM; for inhibition at 1 µM: 1 μM compound, read-out: % Inhibition of CHK-2 enzyme activity @ 1 μM
CHK-2 kinase, sequence (O96017 whole entry): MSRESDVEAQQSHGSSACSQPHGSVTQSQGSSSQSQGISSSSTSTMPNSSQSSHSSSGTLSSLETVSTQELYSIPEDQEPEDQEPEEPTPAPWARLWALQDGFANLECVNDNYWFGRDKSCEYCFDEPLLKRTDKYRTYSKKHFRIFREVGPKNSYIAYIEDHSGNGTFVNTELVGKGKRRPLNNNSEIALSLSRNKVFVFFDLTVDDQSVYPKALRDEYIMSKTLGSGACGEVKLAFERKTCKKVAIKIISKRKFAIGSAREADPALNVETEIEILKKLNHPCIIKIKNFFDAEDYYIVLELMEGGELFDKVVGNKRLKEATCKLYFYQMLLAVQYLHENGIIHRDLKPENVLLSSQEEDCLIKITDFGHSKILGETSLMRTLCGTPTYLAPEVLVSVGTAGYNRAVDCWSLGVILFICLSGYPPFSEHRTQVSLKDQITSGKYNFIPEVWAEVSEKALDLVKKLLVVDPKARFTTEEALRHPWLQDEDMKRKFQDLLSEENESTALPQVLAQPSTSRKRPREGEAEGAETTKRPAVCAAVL
Description: IC50 values of compounds for inhibition of CHK-2 kinase or percent inhibition at defined concentrations were determined by Z-LYTE™ based TR-FRET assay. Kinase reactions were performed in a 10 μL volume in low-volume 384-well plates. The concentration of substrate (Ser Thr 07) was maintained at 1 μM in the assay, and the kinase reaction buffer consisted of 50 mM HEPES pH 7.5, 0.01% BRIJ-35, 10 mM MgCl2, 1 mM EGTA. Serially diluted compounds (3-fold) in DMSO (0.5% in final reaction) were incubated with cocktail of CHK2 kinase (5 ng/ml; Cat #PV3367, ThermoFisher), substrate Ser Thr 07, (1 μM; Cat #PV3208, ThermoFisher), ATP (84 μM; Cat #PV3227, ThermoFisher) and buffer. Kinase reactions were allowed to proceed for 1 hour at room temperature after which 5 μL of a 1:45000 dilution of Development Reagent A was added. The plate was allowed to incubate at room temperature for 60 minutes before being read on a BMG Pherastar plate reader using the Z-LYTE™ filter block for Z-LYTE™ TR-FRET.
The resulting TR-FRET emission ratio was used to calculate percent inhibition by normalizing with the control using the following formula: — [% Inhibition=1−{(% Phosphorylationsample/% Phosphorylationcontrol (0% inhibition)}·100]
For calculation of IC50, the percent inhibition obtained was plotted against the concentration of inhibitor, and the data was fit to a sigmoidal dose-response curve with a variable slope. The IC50 was calculated from the curve.

Panc-10.05 = assay: Cell viability assay (resazurin), Panc-10.05; format: cell-based; conditions: Homo sapiens, Panc1005; Panc-10.05 cells
Description: as §1, §2

| IC50 (THP1) | IC50 (HT-29) | IC50 (A549) | inhibition at 0.1 µM (CHK-1 kinase) | inhibition at 1 µM (CHK-1 kinase) | inhibition at 5 µM (CHK-1 kinase) | IC50 (HCT116) | IC50 (MiaPaCa-2) | IC50 (AsPC-1) | IC50 (MV-4-11) | inhibition at 0.1 µM (CHK-2 kinase) | inhibition at 1 µM (CHK-2 kinase) | IC50 (Panc-10.05) | IC50 (CHK-1 kinase) | Compound | IC50 (MDA_MB-231) |
| --- | --- | --- | --- | --- | --- | --- | --- | --- | --- | --- | --- | --- | --- | --- | --- |
| 21.8 µM | – | – | 61% | 93% | 100% | – | 23.5 µM | 11.9 µM | – | – | – | – | – | CN1CCC(Nc2cc(Nc3cnc(C#N)cn3)nnc2C(N)=O)CC1 [1.20, 6-(5-cyanopyrazin-2-ylamino)-4-(1-methylpiperidin-4-ylamino)pyridazine-3-carboxamide] | – |
| > 30 µM | > 30 µM | > 30 µM | – | 93% | 98% | > 30 µM | > 30 µM | > 30 µM | – | 12.1% | 36.7% | > 30 µM | 0.092 µM | N#Cc1cnc(Nc2cc(NCC3CCNCC3)c(C(N)=O)nn2)cn1 [1.3, 6-((5-cyanopyrazin-2-yl)amino)-4-((piperidin-4-ylmethyl)amino)pyridazine-3-carboxamide] | > 30 µM |
| 13.1 µM | – | – | 49% | 90% | 99% | – | 26.2 µM | 8.45 µM | – | – | – | – | – | CNC(=O)c1nnc(Nc2cnc(C#N)cn2)cc1NCC1CCN(C)CC1 [1.19, 6-(5-cyanopyrazin-2-ylamino)-N-methyl-4-((1-methylpiperidin-4-yl)methylamino)pyridazine-3-carboxamide] | – |

The next lines start with the molecule.

| Compound | IC50 (THP1) | IC50 (HT-29) | IC50 (A549) | inhibition at 0.1 µM (CHK-1 kinase) | inhibition at 1 µM (CHK-1 kinase) | inhibition at 5 µM (CHK-1 kinase) | IC50 (HCT116) | IC50 (MiaPaCa-2) | IC50 (AsPC-1) | IC50 (MV-4-11) | inhibition at 0.1 µM (CHK-2 kinase) | inhibition at 1 µM (CHK-2 kinase) | IC50 (Panc-10.05) | IC50 (CHK-1 kinase) | IC50 (MDA_MB-231) |
| --- | --- | --- | --- | --- | --- | --- | --- | --- | --- | --- | --- | --- | --- | --- | --- |
| CNC(=O)c1nnc(Nc2cnc(C#N)cn2)cc1NC[C@H]1CNCCO1 (stereo in doubt) [1.35, 6-(5-cyanopyrazin-2-ylamino)-N-methyl-4-(morpholin-2-ylmethylamino)pyridazine-3-carboxamide] | 6.23 µM | 14.5 µM | > 30 µM | 86% | 100% | 100% | 17.2 µM | 10.2 µM | 11.6 µM | 5.38 µM | – | – | – | – | 15.5 µM |
| N#Cc1cnc(Nc2cc(NCC3CNCCO3)c(C(N)=O)nn2)cn1 (stereo not drawn) [1.2, 6-((5-cyanopyrazin-2-yl)amino)-4-((morpholin-2-ylmethyl)amino)pyridazine-3-carboxamide] | > 30 µM | > 30 µM | > 30 µM | – | 96% | 100% | > 30 µM | > 30 µM | > 30 µM | – | 8.28% | 30% | > 30 µM | 0.07 µM | > 30 µM |
| CNC(=O)c1nnc(Nc2cnc(C#N)cn2)cc1NCC1CNCCO1 (stereo not drawn) [1.11, 6-(5-cyanopyrazin-2-ylamino)-N-methyl-4-(morpholin-2-ylmethylamino)pyridazine-3-carboxamide] | 4.24 µM | 14.9 µM | 11.4 µM | 91% | 100% | 100% | 17.2 µM | 13.4 µM | 6.41 µM | 5.4 µM | – | – | – | – | 13 µM |
| N#Cc1cnc(Nc2cc(NCC3CCNCC3)c(-c3ccccc3)nn2)cn1 [1.1, 5-((6-phenyl-5-((piperidin-4-ylmethyl)amino)pyridazin-3-yl)amino)pyrazine-2-carbonitrile] | – | – | – | – | 15% | 32% | > 30 µM | – | – | – | – | – | – | – | – |
| N#Cc1cnc(Nc2cc(NCC3CNCCO3)c(C(=O)NC3CC3)nn2)cn1 (stereo not drawn) [1.12, 6-(5-cyanopyrazin-2-ylamino)-N-cyclopropyl-4-(morpholin-2-ylmethylamino)pyridazine-3-carboxamide] | 11.7 µM | > 30 µM | – | 63% | 96% | 98% | – | 23.2 µM | 12.9 µM | – | – | – | – | – | – |
| N#Cc1cnc(Nc2cc(NCC3CNCCO3)c(C(F)(F)F)nn2)cn1 (stereo not drawn) [1.7, 2-((6-(5-cyanopyrazin-2-ylamino)-3-(trifluoromethyl)pyridazin-4-ylamino)methyl)morpholin-4-ium 2,2,2-trifluoroacetate] | > 30 µM | > 30 µM | – | – | – | – | – | > 30 µM | – | – | – | – | – | – | – |
| CNC(=O)c1nnc(Nc2cnc(C#N)cn2)cc1NC[C@@H]1CNCCO1 (stereo in doubt) [1.34, 6-(5-cyanopyrazin-2-ylamino)-N-methyl-4-(morpholin-2-ylmethylamino)pyridazine-3-carboxamide] | 9.79 µM | 16.9 µM | > 30 µM | 77% | 96% | 99% | 27.9 µM | 10.8 µM | 13.2 µM | 7 µM | – | – | – | – | 12.4 µM |
